The record followed here is patent publication US20260167622A1, “PAN-KRAS DEGRADING AGENT, AND PREPARATION METHOD THEREFOR AND USE THEREOF” (LEADINGTAC PHARMACEUTICAL (SHAOXING) CO., LTD., priority 2022, published 2026).

In assay [1] the target is T1, KRAS G12V protein in SW620 cells (Homo sapiens, UniProt P01116, G12V).
T1 construct: endogenous in cells; host or cells: SW620
Nature of the assay: KRAS degradation assay (Western Blot) in SW620 cells. The format is cell-based. The settings on record: for DC50: 24 h; for Dmax: SW-620, 24 h. Put shortly:
(§1)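 5×10^5 cells/well; cpd 0.03–3000 nM final, 0.25% DMSO, 24 h, 37 °C/5% CO2. RIPA lysis, 5 µg protein/lane, anti-KRAS WB, β-actin loading ref. DC50/Dmax by nonlinear fit.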

In assay [2] the target is T2, KRAS G12C protein in NCI-H358 cells (Homo sapiens, UniProt P01116, G12C).
T2 construct: endogenous in cells; host or cells: NCI-H358
T2 sequence (P01116 1-188 isoform P01116-2 G12C): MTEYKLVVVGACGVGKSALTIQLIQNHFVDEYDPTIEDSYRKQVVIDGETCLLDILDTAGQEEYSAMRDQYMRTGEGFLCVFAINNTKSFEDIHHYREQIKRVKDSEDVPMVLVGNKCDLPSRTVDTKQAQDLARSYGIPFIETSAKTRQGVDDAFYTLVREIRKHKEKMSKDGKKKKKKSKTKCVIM
Nature of the assay: KRAS degradation assay (Western Blot) in NCI-H358 cells. The settings on record: 24 h. The format is cell-based. The method in brief:
as §1

The target of assay [3] is T3, KRAS WT (expanded) protein in MKN1 cells (Homo sapiens, UniProt P01116).
T3 construct: endogenous in cells; host or cells: MKN1 (MKN-1)
T3 sequence (P01116 1-188 isoform P01116-2): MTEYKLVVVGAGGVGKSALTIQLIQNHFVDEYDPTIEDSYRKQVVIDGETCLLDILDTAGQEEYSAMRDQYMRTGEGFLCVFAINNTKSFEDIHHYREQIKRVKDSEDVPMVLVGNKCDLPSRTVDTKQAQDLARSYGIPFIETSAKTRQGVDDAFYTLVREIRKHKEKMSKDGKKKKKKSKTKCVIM
The assay can be described thus: KRAS degradation assay (Western Blot) in MKN1 cells. The format is cell-based. The settings on record: for DC50: 24 h; for Dmax: MKN-1, 24 h. The method in brief:
as §1

Assay [4] has as its target T4, Human KRAS G12C (Homo sapiens, UniProt P01116, G12C).
T4 construct: purchased PerkinElmer
The assay can be described thus: KRAS G12C:GTP binding assay (HTRF kit). The settings on record: 25° C., 1 h. As for the experimental part:
Test Example 4: KRAS G12C Binding Assay
In this method, the inhibitory effects of the compounds on the binding of KRAS G12C to GTP were assayed by a homogeneous time-resolved fluorescence (HTRF) technique using a KRAS G12C:GTP binding assay kit (PerkinElmer).
The experimental procedures were as follows (refer to the kit instructions for detailed test methods): the compounds of the present disclosure were each firstly dissolved in DMSO at a stock concentration of 20 mM. The stock solutions of the compounds were diluted in an equal gradient with DMSO, and then were subjected to second dilution with a buffer in the kit, so that the final concentrations of the test compounds in the reaction system were in a range of 0.02-5000 nM, and the final concentration of DMSO was 0.5%. […] After the incubation was completed, the fluorescence intensity of each well was measured at the excitation wavelength of 337 nm and the emission wavelengths of 620 nm and 665 nm with an EnVision microplate reader (PerkinElmer) in the HTRF mode, and Ratio values were calculated using the formula: Ratio=(665 nm/620 nm)×[…]. The inhibition rates of the compounds at each concentration were calculated by comparing the fluorescence intensity ratio with that of the control group. […]

T1 sequence (P01116 1-188 isoform P01116-2 G12V): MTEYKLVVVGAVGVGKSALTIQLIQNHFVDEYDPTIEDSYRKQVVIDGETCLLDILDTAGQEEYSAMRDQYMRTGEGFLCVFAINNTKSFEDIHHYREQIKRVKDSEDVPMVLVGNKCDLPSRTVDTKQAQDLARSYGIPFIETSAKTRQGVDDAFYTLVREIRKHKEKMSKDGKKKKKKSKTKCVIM
T4 sequence (P01116 1-188 isoform P01116-2 G12C): as the sequence (P01116 1-188 isoform P01116-2 G12C) above

Take `C#Cc1c(F)ccc2cc(O)cc(-c3ncc4c(N5CCC[C@@](C)(O)C5)nc(OCC5(CN6CCN(CC7CCC8(CC7)CCN(C(=O)c7ccc(OC)c(N9CCC(=O)NC9=O)c7)CC8)CC6)CC5)nc4c3F)c12` [Example 7, (R)-1-(5-(9-((4-((1-(((7-(8-ethynyl-7-fluoro-3-hydroxynaphthalen-1-yl)-8-fluoro-4-(3-hydroxy-3-methylpiperidin-1-yl)pyrido[4,3-d]pyrimidin-2-yl)oxy)methyl)cyclopropyl)methyl)piperazin-1-yl)methyl)-3-azaspiro[5.5]undecane-3-carbonyl)-2-methoxyphenyl)dihydropyrimidine-2,4(1H,3H)-dione]: the DC50 in assay [1] was 0.62 nM; in assay [2], at most 50 nM; in assay [3] it was at most 50 nM. For the same compound, the values for the Dmax in assay [1], in assay [2] and in assay [3] were 100%, 80 to 100% and 80 to 100%, respectively.
With `C#Cc1c(F)ccc2cc(O)cc(-c3ncc4c(N5CCC[C@@](C)(O)C5)nc(OCC5(CN6CCN(CC7CCC8(CC7)CCN(C(=O)c7ccc(C)c(N9CCC(=O)NC9=O)c7)CC8)CC6)CC5)nc4c3F)c12` [Example 6, (R)-1-(5-(9-((4-((1-(((7-(8-ethynyl-7-fluoro-3-hydroxynaphthalen-1-yl)-8-fluoro-4-(3-hydroxy-3-methylpiperidin-1-yl)pyrido[4,3-d]pyrimidin-2-yl)oxy)methyl)cyclopropyl)methyl)piperazin-1-yl)methyl)-3-azaspiro[5.5]undecane-3-carbonyl)-2-methylphenyl)dihydropyrimidine-2,4(1H,3H)-dione], the DC50 is 3.56 nM in assay [1], at most 50 nM in assay [2] and at most 50 nM in assay [3]. In addition, the Dmax is 99.1% in assay [1], 80 to 100% in assay [2] and 80 to 100% in assay [3].
For `C#Cc1c(F)ccc2cc(O)cc(-c3ncc4c(N5CCC[C@@](C)(O)C5)nc(OCC5(CN6CCN(CC7CCC8(CC7)CCN(C(=O)c7ccc(Cl)c(N9CCC(=O)NC9=O)c7)CC8)CC6)CC5)nc4c3F)c12` [Example 1, (R)-1-(2-chloro-5-(9-((4-((1-(((7-(8-ethynyl-7-fluoro-3-hydroxynaphthalen-1-yl)-8-fluoro-4-(3-hydroxy-3-methylpiperidin-1-yl)pyrido[4,3-d]pyrimidin-2-yl)oxy)methyl)cyclopropyl)methyl)piperazin-1-yl)methyl)-3-azaspiro[5.5]undecane-3-carbonyl)phenyl)dihydropyrimidine-2,4(1H,3H)-dione], the 50% inhibitory concentration (IC50) in assay [4] lay within 500 to 1000 nM. Besides, the DC50 is 2.67 nM in assay [1], at most 50 nM in assay [2] and at most 50 nM in assay [3]. The values for the maximal degradation (Dmax) in assay [1], in assay [2] and in assay [3] were 100%, 80 to 100% and 80 to 100%, respectively.
Turning to `CCc1cccc2cc(O)cc(-c3ncc4c(N5CCC[C@@](C)(O)C5)nc(OCC5(CN6CCN(CC7CCC8(CC7)CCN(C(=O)c7ccc(Cl)c(N9CCC(=O)NC9=O)c7)CC8)CC6)CC5)nc4c3F)c12` [Example 3, (R)-1-(2-chloro-5-(9-((4-((1-(((7-(8-ethyl-3-hydroxynaphthalen-1-yl)-8-fluoro-4-(3-hydroxy-3-methylpiperidin-1-yl)pyrido[4,3-d]pyrimidin-2-yl)oxy)methyl)cyclopropyl)methyl)piperazin-1-yl)methyl)-3-azaspiro[5.5]undecane-3-carbonyl)phenyl)dihydropyrimidine-2,4(1H,3H)-dione], the concentration for half-maximal inhibition (IC50) in assay [4] was at most 500 nM. The 50% degradation concentration (DC50) in assay [2] and in assay [3] was at most 50 nM each time. Moreover, the Dmax in assay [2] and in assay [3] was 80 to 100% throughout.
